Results on 2 molecules are retold here after patent publication US11708391B2, “Rapaglutins, novel inhibitors of GLUT and use thereof” (The Johns Hopkins University, priority 2016, dated 2023).

Where two headings read alike, the source gives them in different places.

The term IC50 denotes the midpoint of a concentration-inhibition curve.

The target of data set [1] is T1, GLUT1 (Homo sapiens, UniProt P11166).
T1 construct: endogenous in cells; host or cells: erythrocyte (RBC-derived) ghosts
T1 sequence (P11166 1-492): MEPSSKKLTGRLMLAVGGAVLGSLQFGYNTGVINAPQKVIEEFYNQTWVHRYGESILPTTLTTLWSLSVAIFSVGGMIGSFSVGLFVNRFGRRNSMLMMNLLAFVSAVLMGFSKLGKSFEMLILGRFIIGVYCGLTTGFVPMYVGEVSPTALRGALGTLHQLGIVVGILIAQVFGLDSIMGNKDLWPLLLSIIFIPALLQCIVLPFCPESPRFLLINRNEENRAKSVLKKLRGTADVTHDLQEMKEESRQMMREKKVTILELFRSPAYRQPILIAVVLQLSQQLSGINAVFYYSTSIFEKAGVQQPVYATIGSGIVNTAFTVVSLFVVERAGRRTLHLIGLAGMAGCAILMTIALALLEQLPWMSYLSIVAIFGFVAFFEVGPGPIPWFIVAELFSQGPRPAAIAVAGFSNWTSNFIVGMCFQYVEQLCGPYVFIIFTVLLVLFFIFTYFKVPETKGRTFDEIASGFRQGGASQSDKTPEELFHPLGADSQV
Kind of data set: 3-O-methyl-D-[3H] glucose uptake in human red blood cells. Format: cell-based. Particulars: RBCs; read-out: IC50 3H-labeled 3-O-methylglucose uptake. From the text:
FIGS. 3A-3D. Inhibition of Glucose Transport by A18 and E11. (a) Inhibition of 3-O-methyl-D-[3H] glucose uptake in human red blood cells by A18. (b) Inhibition of 3-O-methyl-D-[3H] glucose uptake in human red blood cells by E11. (c) Inhibition of 3-O-methyl-D-[3H] glucose uptake in erythrocyte ghosts by A18. (d) Inhibition of 3-O-methyl-D-[3H] glucose uptake in erythrocyte ghosts by E11.
A18 and E11 were previously shown to have a broad spectrum of anticancer activity. […] To test this hypothesis, red blood cells (RBCs) were applied as a cell model because RBCs express Glut1 as their sole glucose transporter and have been frequently used in studying glucose transport. […] To eliminate other possibilities, the glucose uptake assays were repeated in RBC-derived ghosts, in which all the intracellular proteins and enzymes were removed and only membrane-bound and membrane-associated proteins remained. […] (see FIGS. 2, 3 and 15-18)

The test system of data set [2] is SRE. Kind of data set: SRE reporter gene assay. Format: cell-based. The text has this:
(§1) FIGS. 28A-28D. (a) A18 and E11 inhibit NFAT and A18, but not E11, stimulates SRE reporter gene signal. (b) E11 inhibits NFAT, NF-κB and IL2, but not MEF-2 or AP-1 pathways, in Jurkat T cells. (c) Glucose inhibitor stimulates SRE reporter gene signal.
For orientation: Reporter assays use an easily measured gene product as a stand-in for the process of interest.

The subject of data set [3] is IL2. Kind of data set: IL2 reporter / IL-2 production in Jurkat T cells. It counts as cell-based.
Description: as §1
Both A18 and E11 have shown immunosuppressive activity, blocking NFAT reporter gene activation and IL-2 production (see e.g., FIG. 28). As such, they can be used as immunosuppressive agents that have applications in treating organ transplantation rejection and all kinds of autoimmune diseases. […]

Data set [4] has as its system HEK 293T cells.
For data set [5], the system named is NF-κB. Kind of data set: NF-κB pathway reporter in Jurkat T cells. It counts as cell-based.
Description: as §1

Data set [6] relates to HEK 293T cells. Kind of data set: Western blot for DNA damage and apoptosis markers in HEK 293T. Particulars: 72 h (DNA damage), 24 h (apoptosis).

Consider `CC[C@@H](C)[C@H]1C(=O)NCC(=O)N(C)CC/C=C/C(=O)OCC(C)(C)C(=O)C(=O)N2CCCC[C@H]2C(=O)O[C@H](CCc2ccc(OC)c(OC)c2)c2cccc(c2)NC(=O)CCC(=O)N(C)[C@@H](CC(C)C)C(=O)N[C@H](Cc2ccccc2)C(=O)N1C` [A18], for which the IC50 in data set [1] was determined as 34.2 nM. For the same molecule, the “SRE reporter gene signal” value in data set [2] is recorded as “stimulates”. Moreover, in data set [3], the IL-2 production result was “blocking”. Moreover, the “DNA damage or apoptosis (phosphor-p53, active caspase 3, 7 and 9)” value in data set [4] is reported as “do not induce DNA damage or apoptosis”.
For the molecule Gly-^MSerBu-Nal-^MAla [E11], in data set [1], the IC50 came out at 74.2 nM. The NF-κB pathway result in data set [5] is “inhibits”. In data set [3], the IL-2 production result is listed as “blocking”. For the same molecule, the IL2 pathway entry in data set [3] (Jurkat T cells) is “inhibits”. The “DNA damage or apoptosis (phosphor-p53, active caspase 3, 7 and 9)” value in data set [6] is given as “do not induce DNA damage or apoptosis”.
